The values that follow come from patent US7855049B2, “Inositol pyrophosphates determine exocytotic capacity” (BioCrine AB, priority 2007, dated 2010).

Holding throughout (format): cell-based
In experiment [1] the test system is mouse β-cells. Put plainly: Capacitance measurement of exocytosis, standard whole-cell patch, inositol phosphate in the pipette-filling solution. Here is the method: Cells expressing EGFP were selected for capacitance measurements. Exocytosis was monitored as changes in cell capacitance using either the perforated patch or standard whole-cell configuration of the patch-clamp technique and an EPC9 patch-clamp amplifier (Heka Elektronik, Lambrecht/Pfalz, Germany). The pipette solution for the perforated patch configuration consisted of (in mM) 76 Cs2SO4, 10 NaCl, 10 KCl, 1 MgCl2, 5 HEPES (pH 7.35 with CsOH) and 0.24 mg/ml amphotericin B. Perforation required a few minutes, and the voltage clamp was considered satisfactory when the Gseries (series conductance) was stable and >35 nS. The pipette solution used for standard whole-cell recordings contained (in mM) 125 Cs-glutamate, 10 CsCl, 10 NaCl, 1 MgCl2, 5 HEPES, 0.05 EGTA, 0.01 GTP and 3 MgATP (pH 7.15 using CsOH). InsP7 isomers were dissolved in the pipette-filling solution to the final concentrations indicated in the text and kept on ice until use. The extracellular medium was composed of (in mM) 118 NaCl, 20 tetraethylammonium-Cl, 5.6 KCl, 1.2 MgCl2, 2.6 CaCl2, 5 HEPES (pH 7.40 using NaOH) and 3 glucose. The stimulation protocol consisted of trains of four 500-ms depolarizations applied at 1 Hz and went from −70 mV to zero mV. The capacitance measurements were performed at 33° C. and the recording chamber was perfused at a rate of 1.5 ml/min.
An important concern is that IP6K's can also use InsP5 as a substrate, generating a different subset of inositol pyrophosphates (4). Therefore, it was necessary to verify that InsP7 is able to directly promote exocytosis. The mammalian InsP7 is the 5-isomer and this was used in detailed experiments (FIG. 3A-D). We also assessed other theoretical isomers of InsP7 (FIG. 3E). To measure the effects of 5-InsP7 on exocytosis, we applied trains of depolarizations in standard whole-cell experiments where the β-cell was dialyzed with a solution containing 3 μM InsP7. Following establishment of the whole-cell configuration, the cell was allowed two minutes equilibration period. A train consisting of four 500 ms depolarizations from −70 mV to 0 mV was then applied to evoke exocytosis. In a series of six experiments, the total increase in cell capacitance amounted to 231+/−12 fF (P<0.01) in the presence of 3 μM InsP7 in the pipette-filling solution and 77+/−11 fF under control conditions, respectively (FIG. 3A). […] The stimulatory action of 5-InsP7 on exocytosis was concentration dependent (FIG. 3D). […] At higher concentrations, 5-InsP7 stimulated exocytosis by 90-410%. Approximating the average data points to the Hill equation yielded a half-maximal stimulatory effect of 1.02 μM and a co-operativity factor of 1.5. […] Thus, 5-InsP7 dose-dependently enhances exocytosis within the physiological range of InsP7 concentrations (1-10 μM). […] This is because the effect of InsP6 on exocytosis can only be discerned under conditions in which endocytosis is inhibited (15). This is not the case for InsP7. […] Our data illustrate that InsP7 and InsP6 have distinct effects on exocytosis.

Experiment [2] concerns whole-cell Ca2+ current in mouse β-cells. Briefly: Whole-cell Ca2+ current (integrated Ca2+ current) during depolarization train. To be noted: 3 μM in the pipette-filling solution. As to the method: FIG. 3. InsP7 dose-dependently promotes Ca2+-dependent exocytosis. Individual mouse β-cells were subjected to a train of four 500-ms depolarizations using the standard whole-cell patch configuration. (A) Exocytosis was observed under control conditions and in the presence of 3 μM 5-InsP7 in the pipette-filling solution. 5-InsP7 was allowed to diffuse into the cell for 2 min before initiation of the experiment. (B) Histogram summarizing the average increases in cell capacitance plotted against the individual depolarizations as well as the total increases in cell capacitance at the end of the train in the absence or presence of 3 μM 5-InsP7 in the pipette-filling solution. (C) Histogram showing integrated Ca2+ current (QCa) plotted against the individual depolarizations in the absence or presence of 3 μM InsP7 in the pipette-filling solution. (D) Concentration dependence of stimulatory action of 5-InsP7 on exocytosis evoked by a single membrane depolarization from −70 mV to zero. The curve represents a least-squares fit of the mean data points to the Hill equation. […]
Cells expressing EGFP were selected for capacitance measurements. Exocytosis was monitored as changes in cell capacitance using either the perforated patch or standard whole-cell configuration of the patch-clamp technique and an EPC9 patch-clamp amplifier (Heka Elektronik, Lambrecht/Pfalz, Germany). […]

In experiment [3] the test system is mouse β-cells. Put plainly: Capacitance measurement of exocytosis, standard whole-cell patch, inositol phosphate in the pipette-filling solution. Further details: dose or concentration left out as unconfirmed. The following applies: at InsP7; single depolarization from −70 mV to zero.
[4] abbreviates: in the presence of 5-InsP7 (3 μM).

Where only a bound is given, the exact number is not on record here.

On to `O=P(O)(O)OC1[C@@H](OP(=O)(O)O)[C@H](OP(=O)(O)O)C(OP(=O)(O)OP(=O)(O)O)[C@H](OP(=O)(O)O)[C@H]1OP(=O)(O)O` (stereo partly drawn) [5-InsP7, 5-Diphosphoinositol pentakisphosphate], for which the “concentration giving maximal stimulation of exocytosis” value with mouse β-cells [1] was ≥ 10 µM. Also, the “total increase in cell capacitance” value in the experiment with mouse β-cells [1] (3 μM InsP7 in the pipette-filling solution, train of four 500 ms depolarizations, six experiments) is on record as 231+/−12 fF. The EC50 in the experiment on mouse β-cells [1] (Hill equation fit of average data points, read-out: half-maximal stimulatory effect on exocytosis) was found to be 1020 nM. The “maximal stimulation of exocytosis” value in the experiment on mouse β-cells [1] (at InsP7 ≧10 μM) is on record as > 380%. The stimulation of exocytosis in the experiment with mouse β-cells [1] (at higher concentrations (above 0.1), single depolarization) is 90-410%. In the experiment with mouse β-cells [1] (setting [4]), the “capacitance increase evoked by the first depolarization” value is “strongly stimulated” and the “exocytosis in response to the subsequent 3 depolarizations” value is “only little effect”. Also, the “exocytotic response in cells with IP6K1 silenced” value in the experiment with mouse β-cells [1] (whole cell mode, IP6K1 siRNA-treated primary β-cells) is reported as “restore normal exocytotic response”. Moreover, the “change in the whole-cell Ca2+ current” value in experiment [2] was “not associated with a change”. Also, in the experiment on mouse β-cells [3], the “stimulation of exocytosis at low concentration” value is given as “No stimulation”.

Turning to `O=P(O)(O)O[C@H]1[C@H](OP(=O)(O)O)[C@@H](OP(=O)(O)O)[C@H](OP(=O)(O)O)[C@@H](OP(=O)(O)O)[C@H]1OP(=O)(O)O` [InsP6], the “net effect on exocytosis/endocytosis” value with mouse β-cells [1] (same conditions as for InsP7, 10 μM InsP6 in the pipette-filling solution) is “promote endocytosis not exocytosis”. Also, the “selective promotion of secretion from the RRP” value in the experiment with mouse β-cells [1] (when endocytosis is inhibited (data not shown)) is given as “does not selectively promote secretion from the RRP”.
